Results as given in the supplement of paper PMC10307832.

Columns and labels:
Test in all cases: relative viability (nuclei count vs DMSO), 5 days (fraction); higher = more cells survive
Dasatinib + Linsitinib = compound: Cc1nc(Nc2ncc(C(=O)Nc3c(C)cccc3Cl)s2)cc(N2CCN(CCO)CC2)n1 [Dasatinib] + C[C@]1(O)C[C@@H](c2nc(-c3ccc4ccc(-c5ccccc5)nc4c3)c3c(N)nccn32)C1 [Linsitinib] (partner 1 µM)
How it was run: (§1)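 Lung cancer cell lines, seeded in 1536-well plates, were treated the following day by pin tool with a single drug or with five library-drug doses (not always all listed) in √10 steps on top of a fixed anchor-drug dose. Cells were fixed and nuclei stained in one step after 5 days, and nuclei were counted. Relative viability is the nuclei count for treated wells divided by that for vehicle wells, reported as medians of duplicate plates.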

XMD13-2 + Pictilisib = compound: C1CC1C(=O)NC2=NNC3=C2C=CC(=C3)C4=CC(=CC=C4)C(=O)NC5CC5 [XMD13-2] + CS(=O)(=O)N1CCN(Cc2cc3nc(-c4cccc5[nH]ncc45)nc(N4CCOCC4)c3s2)CC1 [Pictilisib] (partner 1 µM)
How it was run: as §1

Dasatinib + Palbociclib = compound: Cc1nc(Nc2ncc(C(=O)Nc3c(C)cccc3Cl)s2)cc(N2CCN(CCO)CC2)n1 [Dasatinib] + CC(=O)c1c(C)c2cnc(Nc3ccc(N4CCNCC4)cn3)nc2n(C2CCCC2)c1=O [Palbociclib] (partner 0.5 µM)
How it was run: as §1

ALW-II-49-7 + Pemetrexed = compound: Cc1ccc(C(=O)Nc2cccc(C(F)(F)F)c2)cc1Nc1cncc(C(N)=O)c1 [ALW-II-49-7] + Nc1nc2[nH]cc(CCc3ccc(C(=O)N[C@@H](CCC(=O)O)C(=O)O)cc3)c2c(=O)[nH]1 [Pemetrexed] (partner 0.2 µM)
How it was run: as §1

Row | Cell Line | relative viability (Dasatinib + Linsitinib; first compound 0.005 µM) | relative viability (Dasatinib + Linsitinib; first compound 0.01581 µM) | relative viability (Dasatinib + Linsitinib; first compound 0.05 µM) | relative viability (Dasatinib + Linsitinib; first compound 0.1581 µM) | relative viability (Dasatinib + Linsitinib; first compound 0.5 µM) | relative viability (XMD13-2 + Pictilisib; first compound 0.05 µM) | relative viability (XMD13-2 + Pictilisib; first compound 0.1581 µM) | relative viability (XMD13-2 + Pictilisib; first compound 0.5 µM) | relative viability (XMD13-2 + Pictilisib; first compound 1.581 µM) | relative viability (XMD13-2 + Pictilisib; first compound 5 µM) | relative viability (Dasatinib + Palbociclib; first compound 0.005 µM) | relative viability (Dasatinib + Palbociclib; first compound 0.01581 µM) | relative viability (Dasatinib + Palbociclib; first compound 0.05 µM) | relative viability (Dasatinib + Palbociclib; first compound 0.1581 µM) | relative viability (Dasatinib + Palbociclib; first compound 0.5 µM) | relative viability (ALW-II-49-7 + Pemetrexed; first compound 0.08 µM) | relative viability (ALW-II-49-7 + Pemetrexed; first compound 0.253 µM) | relative viability (ALW-II-49-7 + Pemetrexed; first compound 0.8 µM) | relative viability (ALW-II-49-7 + Pemetrexed; first compound 2.53 µM) | relative viability (ALW-II-49-7 + Pemetrexed; first compound 8 µM)
1 | EKVX | 0.945 | 0.683 | 0.778 | 0.314 | 0.142 | 0.476 | 0.401 | 0.434 | 0.42 | 0.388 | 0.412 | 0.319 | 0.332 | 0.199 | 0.13 | 0.396 | 0.323 | 0.405 | 0.336 | 0.414
2 | NCI-H460 | 0.315 | 0.229 | 0.157 | 0.0338 | 0.0131 | 0.532 | 0.324 | 0.363 | 0.4 | 0.36 | 0.14 | 0.112 | 0.0827 | 0.06 | 0.0635 | 0.0507 | 0.0651 | 0.0651 | 0.0782 | 0.0738
3 | NCI-H838 | 0.832 | 0.628 | 0.573 | 0.243 | 0.221 | 0.423 | 0.512 | 0.497 | 0.447 | 0.466 | 0.193 | 0.156 | 0.182 | 0.148 | 0.141 | 0.237 | 0.272 | 0.243 | 0.258 | 0.25
4 | NCI-H1792 | 0.491 | 0.355 | 0.377 | 0.219 | 0.0845 | 0.29 | 0.249 | 0.266 | 0.284 | 0.265 | 0.685 | 0.639 | 0.566 | 0.429 | 0.271 | 0.561 | 0.531 | 0.446 | 0.857 | 0.602
5 | H3255 | 0.929 | 0.918 | 0.957 | 0.658 | 0.287 | 0.589 | 0.525 | 0.485 | 0.526 | 0.445 | 0.312 | 0.333 | 0.329 | 0.317 | 0.274 | 0.623 | 0.579 | 0.576 | 0.566 | 0.489
6 | EPLC-272H | 1.24 | 1.28 | 1.46 | 0.92 | 0.338 | 0.349 | 0.271 | 0.271 | 0.23 | 0.187 | 0.31 | 0.327 | 0.314 | 0.296 | 0.143 | 0.315 | 0.382 | 0.289 | 0.34 | 0.206
7 | NCI-H647 | 1.02 | 0.46 | 0.627 | 0.319 | 0.192 | 0.534 | 0.491 | 0.393 | 0.296 | 0.277 | 0.314 | 0.22 | 0.162 | 0.0968 | 0.0812 | 0.186 | 0.175 | 0.16 | 0.123 | 0.115
8 | LXF-289 | 1 | 0.974 | 0.831 | 0.202 | 0.131 | 0.941 | 0.728 | 0.806 | 0.714 | 0.642 | 0.603 | 0.676 | 0.672 | 0.384 | 0.118 | 0.822 | 0.869 | 0.958 | 1.05 | 0.959
